Literature values in US5331009A, “Pharmaceutical compositions for treating adrenoleukodystrophy” (Croda International plc, priority 1988, dated 1994).

Tested on: ALD patients

| Compound | C26:0 body levels (very long chain fatty acids omitted from diet, glyceryl trioleate used alone) | therapeutic benefit of administration to ALD patients (Rizzo, Neurology 36 (1986) 357, Moser, Ann. Neurol. 21, 1987) |
| --- | --- | --- |
| CCCCCCCC/C=C\CCCCCCCC(=O)OCC(COC(=O)CCCCCCC/C=C\CCCCCCCC)OC(=O)CCCCCCC/C=C\CCCCCCCC [glyceryl trioleate] | reductions can occur |  |
| CCCCCCCC/C=C\CCCCCCCC(=O)O [oleic acid (C18:1), oleic acid] |  | generally therapeutically advantageous |
